What was measured:
[1] = LNP encapsulation efficiency (Quant-it Ribogreen); assay type: physicochemical; settings: mRNA LNP, cationic lipid/DSPC/cholesterol/PEG-lipid 50:10:38.5:1.5
mice = assay: Bioluminescent study, intramuscular injection of F-luc mRNA LNPs; assay type: in vivo; settings: F-luc luminescence flux normalized to MC3; 0.25 mg/kg intramuscular, mice n=3, 6-hour time point
Procedure, shortened: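 Mice (n=3) received LNP-formulated F-luc mRNA at 0.25 mg/kg intramuscularly. Bioluminescence was read 6 h after dosing. Test LNPs were made with an MC3 formulation, and PBS served as control in some groups.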

[2] = LNP size and PDI by dynamic light scattering; assay type: physicochemical; settings: mRNA LNP, cationic lipid/DSPC/cholesterol/PEG-lipid 50:10:38.5:1.5
LNP zeta potential = assay type: physicochemical; settings: mRNA LNP

| SMILES | Encapsulation efficiency (%) [1] [%] | Relative Total flux (mice) | PDI [2] | Size (nm) [2] [nm] | Zeta potential (mV) (LNP zeta potential) |
| --- | --- | --- | --- | --- | --- |
| CCCCCCCCNC(=O)C(CCCCCCCC)N(CCC1CCCN1C)C(=O)CCCCCCC(=O)OC(CCCCCCCC)CCCCCCCC (stereo not drawn) [Compound A34] | 95.23 | A (A: ≥2) | 0.11 | 94.21 | 2.08 |
| CCCCCCCC(C(=O)NCCCCCCCCCC(=O)OC(CCCCCC)CCCCCC)N(CCCN(CCO)C1CCCCC1)C(=O)CCCCCCCCCC(=O)OC(CCCCCC)CCCCCC (stereo not drawn) [Compound B14] | 89.01 | A (A: ≥2) | 0.13 | 76.67 | 2.73 |
| CCCCCCCC(C(=O)NCCCCCCCCCC(=O)OC(CCCCCC)CCCCCC)N(CCN(CCO)C1CCC1)C(=O)CCCCCCCCCC(=O)OC(CCCCCC)CCCCCC (stereo not drawn) [Compound B11] | 81.83 | A (A: ≥2) | 0.205 | 70.27 | −9.69 |
| CCCCCCC(CCCCCC)OC(=O)CCCCCCCCCNC(=O)C(CCCCCCCCCC(=O)OC(CCCCCC)CCCCCC)N(CCCN1CCN(CO)CC1)C(=O)CCCN1CCN(CCO)CC1 (stereo not drawn) [Compound E11] | 93.77 | B (B: ≥1 and <2) | 0.158 | 85.75 | 0.85 |
| CCCCCCCC(C(=O)NCCCCCCCCCC(=O)OC(CCCCCC)CCCCCC)N(CCCN(CCO)CCO)C(=O)CCCCCCCCCC(=O)OCC12CC3CC(CC(C3)C1)C2 (stereo not drawn) [Compound B4] | 96.14 | A (A: ≥2) | 0.159 | 72.08 | 10.58 |
| CCCCCCCC(C(=O)NCCCCCCCCCC(=O)OC(CCCCCC)CCCCCC)N(CCCN(CCO)C1CCC1)C(=O)CCCCCCCCCC(=O)OC(CCCCCC)CCCCCC (stereo not drawn) [Compound B10] | 46.91 | A (A: ≥2) | 0.166 | 66.9 | 2.18 |
| CCCCCCCCC(CCCCCCCC)OC(=O)CCCCCC(=O)N(CCCN(C)C)C(CCCCCCCC)C(=O)NCCCCCC(=O)OCCC12CC3CC(CC(C3)C1)C2 (stereo not drawn) [Compound A48] | 94.62 | A (A: ≥2) | 0.08 | 64.27 | 0.65 |
| CCCCCCCCC(C(=O)NCCCCCCCCCC(=O)OC(CCCCCC)CCCCCC)N(CCCN(C)C)C(=O)CCCCCCCCCC(=O)OC(CCCCCC)CCCCCC (stereo not drawn) [Compound A11] | 71.39 | D (D: <0.1.) | 0.075 | 225.6 | −2.89 |
| CCCCCCCCC(C(=O)NCCCCCCCCCC(=O)OCCCCCC)N(CCCN(CCO)CCO)C(=O)CCCCCCCCCC(=O)OC(CCCCCC)CCCCCC (stereo not drawn) [Compound B3] | 79.83 | A (A: ≥2) | 0.306 | 85.75 | −6.91 |
| CCCCCCC(CCCCCC)OC(=O)CCCCCCCCCNC(=O)CN(CCN(C)CCN(CC(=O)NCCCCCCCCCC(=O)OC(CCCCCC)CCCCCC)C(=O)CCCCCCCCCC(=O)OC(CCCCCC)CCCCCC)C(=O)CCCCCCCCCC(=O)OC(CCCCCC)CCCCCC [Compound D5] | 96.72 | A (A: ≥2) | 0.183 | 78.42 | −17.80 |
| CCCCCCCCNC(=O)C(CCCCCCCC)N(CCCN1CCCC1)C(=O)CCCCCCC(=O)OC(CCCCCCCC)CCCCCCCC (stereo not drawn) [Compound A36] | 92.48 | A (A: ≥2) | 0.17 | 79.52 | −1.82 |
| CCCCCCCCC(CCCCCC)C(=O)OCCCCCCN(CCCCO)CCCCCCOC(=O)C(CCCCCC)CCCCCCCC (stereo not drawn) [ALC-0315] | 93.27 | A (A: ≥2) | 0.082 | 70.12 | −0.76 |
| CCCCCCCCCCOCCCCCCCC(=O)N(CCCN(C)C)C(CCCCCCCC)C(=O)NCCCCCC(=O)OC(CCCCCCCC)CCCCCCCC (stereo not drawn) [Compound A41] | 54.08 | C (C: ≥0.1 and <1) | 0.66 | 264.60 | −10.28 |
| CCCCCCCCC(C(=O)NCCCCCCCCCC(=O)OCCCCCC)N(CCCN(C)C)C(=O)CCCCCCCCCC(=O)OCCCCCC (stereo not drawn) [Compound A16] | 41.55 | C (C: ≥0.1 and <1) | 0.183 | 78.42 | 0.78 |
| CCCCCCCC(C(=O)NCCCCCCCCCC(=O)OC(CCCCCC)CCCCCC)N(CCOC(=O)CCN1CCCC1)C(=O)CCCCCCCCCC(=O)OC(CCCCCC)CCCCCC (stereo not drawn) [Compound B25] | 69.52 | A (A: ≥2) | 0.095 | 64.2 | −3.38 |
| CCCCCCCC(C(=O)NCCCCCCCCCC(=O)OC(CCCCCC)CCCCCC)N(CCCN(C)C)C(=O)CCCCCCCCCC(=O)OC(CCCCCC)CCCCCC (stereo not drawn) [Compound A12] | 24.84 | C (C: ≥0.1 and <1) | 0.207 | 63.48 | −9.55 |
| CCCCCCCC(C(=O)NCCCCCCCCCC(=O)OC(CCCCCC)CCCCCC)N(CCCn1ccnc1)C(=O)CCCCCCCCCC(=O)OC(CCCCCC)CCCCCC (stereo not drawn) [Compound B20] | 93.73 | A (A: ≥2) | 0.391 | 93.23 | −2.36 |
| CCCCCCCC(C(=O)NCCCCCCCCCC(=O)OC(CCCCCC)CCCCCC)N(CCCNC(=S)N(C)C)C(=O)CCCCCCCCCC(=O)OC(CCCCCC)CCCCCC (stereo not drawn) [Compound B21] | 93.97 | B (B: ≥1 and <2) | 0.388 | 84.45 | 6.22 |
| CCCCCCCCC(CCCCCC)COC(=O)CCCCCNC(=O)C(CCCCC)N(CCCCN1CCCC1)C(=O)CCCCCC(=O)OCC(CCCCCC)CCCCCCCC (stereo not drawn) [Compound A46] | 94.31 | A (A: ≥2) | 0.19 | 107.50 | −0.55 |
| CCCCC/C=C\C/C=C\CCCCCCCCNC(=O)C(CCCCCCCC)N(CCCCCCCC/C=C\C/C=C\CCCCC)C(=O)CCCN1CCN(C)CC1 (stereo not drawn) [Compound C5] | 91.26 | D (D: <0.1.) | 0.198 | 64.58 | −14.75 |
| CCCCCCCCNC(=O)C(CCCCCCCC)N(CCN(CC)CCO)C(=O)CCCCCCC(=O)OC(CCCCCCCC)CCCCCCCC (stereo not drawn) [Compound B29] | 93.73 | A (A: ≥2) | 0.10 | 62.10 | 1.69 |
| CCCCCCCC(C(=O)NCCCCCCCCCC(=O)OC(CCCCCC)CCCCCC)N(CCCN1CCCC1)C(=O)CCCCCCCCCC(=O)OCC12CC3CC(CC(C3)C1)C2 (stereo not drawn) [Compound A7] | 96.10 | C (C: ≥0.1 and <1) | 0.274 | 62.53 | 4.99 |
| CCCCCCCCNC(=O)C(CCCCCCCC)N(CCN(C)CCO)C(=O)CCCCCCC(=O)OC(CCCCCCCC)CCCCCCCC (stereo not drawn) [Compound B31] | 95.03 | A (A: ≥2) | 0.10 | 61.00 | 4.83 |
| CCCCCCC(CCCCCC)OC(=O)CCCCCCCCCNC(=O)C(CCCCCCCCCC(=O)OC(CCCCCC)CCCCCC)N(CCCN1CCN(C)CC1)C(=O)CCCN1CCN(C)CC1 (stereo not drawn) [Compound E9] | 82.13 | C (C: ≥0.1 and <1) | 0.593 | 91.81 | −15.91 |

From patent publication US20260078099A1, “COMPOUND, PREPARATION METHOD THEREOF, AND LIPID NANOPARTICLE AND PHARMACEUTICAL COMPOSITION” (priority 2023, published 2026)
